# What was measured:
# human thrombocytes = experiment: Inhibiting the binding of ^3 H-BIBU 52 to human thrombocytes; conditions: human thrombocytes in plasma; ^3 H-BIBU 52 final concentration 5 nM; ambient temperature, 20 minutes; read-out: ^3 H-BIBU-52-binding test IC50
# Method: 1. Inhibiting the Binding of ^3 H-BIBU 52 to Human Thrombocytes:
# A suspension of human thrombocytes in plasma is incubated with ^3 H-BIBU 52 [=(3S,5S)-5-[(4'-amidino-4-biphenylyl)oxymethyl]-3-[(carboxy)methyl]-2-pyrrolidinone[3-^3 H-4-biphenylyl]], replacing the ligand ^125 I-fibrinogen known from the literature, (cf. DE-A-4,214.245) and various concentrations of the substance to be tested. The free and bound ligand is separated off by centrifuging and quantitatively determined by scintillation counting. From the results obtained, the inhibition of ^3 H-BIBU 52 binding by the test substance is determined.
# In order to do this, donor blood is taken from an anticubital vein and anticoagulated with trisodium citrate (final concentration 13 mM). The blood is centrifuged for 10 minutes at 170×g and the supernatant platelet-rich plasma (PRP) is removed. The residual blood is sharply centrifuged off once more in order to obtain plasma. The PRP is diluted 1:10 with autologous plasma. 750 μl are incubated with 50 μl of physiological saline, 100 μl of test substance solution, 50 μl of ^14 C sucrose (3.700 Bq) and 50 μl of ^3 H-BIBU 52 (final concentration: 5 nM) at ambient temperature for 20 minutes. […] 100 μl of it are measured in order to determine the free ligand. The pellet is dissolved in 500 μl of 0.2N NaOH, 450 μl are mixed with 2 ml of scintillator and 25 μl of 5N HCl and measured. […]
# thrombocyte aggregation = experiment: Antithrombotic activity: inhibition of collagen-induced platelet (thrombocyte) aggregation in platelet-rich plasma; format: cell-based; conditions: Homo sapiens, 10 min, platelet-rich plasma from healthy test subjects, incubated with substance at 37° C. for 10 minutes, 50% change in optical density
# Method: 2. Antithrombotic Activity:
# The thrombocyte aggregation is measured by the Born and Cross method (J. Physiol. 170, 397 (1964)) in platelet-rich plasma from healthy test subjects. To inhibit clotting, the blood is mixed with 3.14% sodium citrate in a ratio by volume of 1:10.
# Collagen-Induced Aggregation
# The progress of the decrease in optical density of the platelet suspension is measured photometrically after the addition of the aggregation-triggering substance and recorded. The rate of aggregation is calculated from the angle of inclination of the density curve. The point on the curve at which there is greatest light permeability is used to calculate the optical density.
# The quantity of collagen is selected to be as small as possible but still sufficient to produce an irreversible reaction curve. The standard commercial collagen made by Hormonchemie of Munich is used.
# Before the collagen is added, the plasma is incubated with the substance at 37° C. for 10 minutes.
# From the measurements obtained, an EC50 was determined graphically corresponding to a 50% change in the optical density in terms of inhibiting aggregation.
IC50 (human thrombocytes) [nM],Structure (SMILES),EC50 (thrombocyte aggregation) [nM]
51,"N=C(N)c1ccc(NC(=O)CCN2CCC(CC(=O)O)CC2)cc1 [1(1), 1-[2-[(4-amidinophenyl)aminocarbonyl]ethyl]-4-carboxymethyl-piperidine]",310
3.7,"N=C(N)c1ccc(NC(=O)CCC2CCN(CC(=O)O)CC2)cc1 [Example 1, 4-[2-[(4-amidinophenyl)aminocarbonyl]ethyl]-1-carboxymethyl-piperidine]",37

# Reference: US5958952A, “Substituted phenylamindines, medicaments containing these compounds and process for producing them” (Dr. Karl Thomae GmbH, priority 1995, dated 1999)
